Data: patent US20260207632A1, “C[…] THERAPY” (KINGDOM THERAPEUTICS LIMITED, priority 2022, published 2026)

Columns and labels:
rat VPA model of autism = assay: Irritability-like behaviour: bottle-brush test (P30) in VPA rat model; format: in vivo; set-up: key to bottle brush irritability: +: improvement; Ø: no change
Protocol: (§1) In the first study, a sub-chronic 8-day dosing schedule was employed with the test compound CBD administered alone (10, 30 and 60 mg/kg, p.o. VPA/CBD; dose volume 5 ml/kg). Control animals were administered sterile saline (0.9% w/v, i.p.) in utero and the vehicle control (ethanol: Kolliphor HS-15:0.9% saline (1:1:18, v/v/v) p.o. VEH/VEH). The test compound and vehicle control were administered to the animals once daily for 7 days prior to, and once again on each day of behavioural assessment, 60 minutes prior to test which consisted of a battery of behavioural paradigms: P30 social play and bottle brush test, P31-32 open field exploratory behaviour. A reference positive control, the atypical antipsychotic risperidone (0.125 mg/kg, i.p., once per day for 8 days prior to and for duration of behavioural testing), was included in study one for comparison. Subsequent to behavioural analysis the effect of CBD on gastrointestinal permeability was evaluated four hours following oral administration of fluorescein isothiocyanate-labelled dextran measured in plasma on postnatal day 33. On postnatal day 34, 60 minutes post a final treatment with the test agents, animals were humanely euthanised and samples collected to evaluate inflammatory biomarkers, gastrointestinal function and histology. 5 In the second study, the sub-optimal dose of CBD (30 mg/kg, p.o.) was evaluated in combination with administration of THC at increasing concentration (0.75, 1.5 and 3 mg/kg, p.o. VPA/CBD+THC). Comparison was made to CBD administered alone at the sub-optimal and effective doses (30 and 60 mg/kg, p.o.) and to vehicle controls as per study one. Behavioural and gastrointestinal readouts were examined as per study one with terminal samples collected on the final day of the experiment.
To test irritability-like behaviour we employed the bottle-brush test modified for rats (Riittinen et al. 1986). Irritability-like behaviour was examined by measuring aggressive and defensive responses during the bottle-brush test carried out in juvenile animals immediately after play behaviour evaluation at P30. Irritability-like behaviour testing was performed under dark conditions with a red light and infrared camera recording (Kononoff et al., 2018). Testing consisted of 10 trials per rat in plastic cages (377×325×170 mm) with fresh bedding. During each trial, the rat was placed at the back of the cage. A bottle-brush was rotated toward the animal's whiskers (from the front of the cage). The brush was rotated around the whiskers of the rat for approximately 1 second. The brush was then rotated back to the front of the cage where it hung vertically for approximately 2 seconds, during which behavioural responses were recorded. An intertrial interval of 10 seconds was used, with each new trial started with the animal returned to the back of the cage. All testing was conducted in the morning, starting at 09.00 and concluded before 12.00.
Employing video analysis of the test the following were scored as aggressive responses: smelling the brush, biting the brush (during the initial phase of rotating the brush forward and back to the starting position), boxing the target, following the brush, exploring the brush (using paws or mouth to manipulate the brush without biting or boxing), mounting the brush, and delayed biting (during the 2 s that the brush hung at the starting position). The following were scored as defensive responses: escaping from the brush, digging, burying, jumping, climbing, vocalization, freezing, and grooming. Grooming and digging were additionally recorded during the 10 second intertrial intervals. Frequency and total time engaged in each behaviour and the sum of aggressive and defensive behaviours, referred to as the irritability score (Kononoff et al, 2018), were recorded.

[1] = tested on: colonic myeloperoxidase (MPO) activity; assay: Colon myeloperoxidase (MPO) activity (P34) in distal colon, VPA rat model; format: in vivo; set-up: key to MPO activity: +: improvement; Ø: no change
Protocol: as §1
Five animals were chosen at random from each of the agreed treatment groups. Colon tissue was collected after euthanasia, weighted, flushed using cold sterile saline, and divided into three sections. One distal sample (approx. 1 cm×1 cm) was employed for intestinal myeloperoxidase (MPO) activity as described below by Berand Ltd. This sample was weighed and stored at −80° C. until use. A second proximal colon sample (approx. 1 cm×5 cm) was prepared for histological analysis by collection using the Swiss roll technique, placed into a cassette for paraffin embedding and preservation in 10% formalin solution for 24 hours. They were then transferred into 70% ethanol solution until paraffin embedded. These samples were shipped in 70% ethanol solution to Transpharmation Ltd at trinity College Dublin, Ireland for further processing. Haematoxylin & eosin staining was performed on the tissue before imaging. Five images were taken from each animal at 1.25× magnification. Using ImageJ the thickness of the muscle layer was measured at 5 locations throughout the section. A third medial section of colon (approx. 1 cm×2.5 cm) was frozen in liquid nitrogen for the analysis of cytokine expression and was shipped at minus 80° C. to Transpharmation Ltd at Trinity College Dublin, Ireland.
Analysis of colonic myeloperoxidase (MPO) activity employed a colorimetric activity assay kit (MAK068, Sigma-Aldrich, Ireland). Samples were analysed according to the manufacturer's instructions. Briefly, weighted distal colon tissues from all the groups were rapidly homogenized with 4 volumes of MPO Assay buffer and then centrifuged (13000 g×10 min, 4° C.) to obtain the supernatant. A 50 μl aliquot of each was added to a flat bottomed 96 well plate and brought to a final volume of 100 μl with MPO assay buffer. The MPO activity in milliunits/mL was determined using a 5,5′-dithiobis-(2-nitrobenzoic acid) (DTNB) probe to produce a TNB chromophore in a standard curve (0-50 nmol/mL). Standards and blank were prepared according to manufacturer's instruction. Absorbance was read at 412 nm at 60 minutes and expressed per mg of tissue sample. […]

[2] = cohort one, risperidone 0.125 mg/kg i.p.
[3] = study one, risperidone 0.125 mg/kg i.p.
[4] = cohort two, CBD 30 mg/kg, THC 0 mg/kg p.o.
[5] = cohort two, CBD 60 mg/kg, THC 0 mg/kg p.o.
[6] = study one, CBD 10 mg/kg, vs VPA/VEH
[7] = study one, CBD 60 mg/kg, vs VPA/VEH

Cc1nc2n(c(=O)c1CCN1CCC(c3noc4cc(F)ccc34)CC1)CCCC2 [Risperidone, risperidone]
bottle brush irritability (rat VPA model of autism; [2]): +
increase in aggressive responses, bottle brush (rat VPA model of autism; [3]): significantly reduced
irritability score (combined aggressive and defensive behaviours) (rat VPA model of autism; [3]): significantly reduced
MPO activity [1, 2]: Ø
increase in colonic MPO activity [1, 3]: without effect

C=C(C)[C@@H]1CCC(C)=C[C@H]1c1c(O)cc(CCCCC)cc1O [CBD, cannabidiol]
bottle brush irritability (rat VPA model of autism; cohort one, CBD 10 mg/kg p.o.): Ø
bottle brush irritability (rat VPA model of autism; cohort one, CBD 30 mg/kg p.o.): +
bottle brush irritability (rat VPA model of autism; cohort one, CBD 60 mg/kg p.o.): +
bottle brush irritability (rat VPA model of autism; [4]): Ø
bottle brush irritability (rat VPA model of autism; [5]): +
increase in aggressive responses, bottle brush (rat VPA model of autism; [6]): significantly reduced
irritability score (combined aggressive and defensive behaviours) (rat VPA model of autism; [6]): significantly reduced
irritability score (combined aggressive and defensive behaviours) (rat VPA model of autism; study one, CBD 30 mg/kg, vs VPA/VEH): significantly reduced
increase in aggressive responses, bottle brush (rat VPA model of autism; [7]): significantly reduced
irritability score (combined aggressive and defensive behaviours) (rat VPA model of autism; [7]): significantly reduced
increase in aggressive responses, bottle brush (rat VPA model of autism; study two, CBD 30 mg/kg): without effect
irritability score (combined aggressive and defensive behaviours) (rat VPA model of autism; study two, CBD 30 mg/kg): without effect
increase in aggressive responses, bottle brush (rat VPA model of autism; study two, CBD 60 mg/kg): significantly reduced
irritability score (combined aggressive and defensive behaviours) (rat VPA model of autism; study two, CBD 60 mg/kg): significantly reduced
MPO activity ([1]; cohort one, CBD 10 mg/kg p.o.): Ø
MPO activity ([1]; cohort one, CBD 30 mg/kg p.o.): Ø
MPO activity ([1]; cohort one, CBD 60 mg/kg p.o.): +
MPO activity [1, 4]: Ø
MPO activity [1, 5]: +
increase in colonic MPO activity [1, 7]: significantly prevented
increase in colonic MPO activity ([1]; study two, CBD 30 mg/kg): without significant effect
increase in colonic MPO activity ([1]; study two, CBD 60 mg/kg): significantly prevented
